From PubChem BioAssay (NCI)
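Abbreviation: GI50, concentration required for 50% inhibition of growth. At the TGI there is no net growth.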

Experiments:
Test in all cases: growth of human tumour cells (NCI), 384-well format
SF-295 CNS = tested on: SF-295 CNS
HL-60(TB) leukemia = tested on: HL-60(TB) leukemia
HCC-2998 colon = tested on: HCC-2998 colon
DU-145 prostate = tested on: DU-145 prostate
UACC-62 melanoma = tested on: UACC-62 melanoma
NCI-H522 lung = tested on: NCI-H522 lung
HS 578T breast = tested on: HS 578T breast
MALME-3M melanoma = tested on: MALME-3M melanoma
NCI-H322M lung = tested on: NCI-H322M lung
786-0 renal = tested on: 786-0 renal
SF-539 CNS = tested on: SF-539 CNS
A549 NSCLC = tested on: A549 NSCLC
T-47D breast = tested on: T-47D breast
OVCAR-3 ovarian = tested on: OVCAR-3 ovarian
MDA-MB-468 breast = tested on: MDA-MB-468 breast
M14 melanoma = tested on: M14 melanoma
SK-MEL-2 melanoma = tested on: SK-MEL-2 melanoma
HT29 colon = tested on: HT29 colon
CCRF-CEM leukemia = tested on: CCRF-CEM leukemia
HCT-15 colon = tested on: HCT-15 colon
SK-MEL-28 melanoma = tested on: SK-MEL-28 melanoma
KM12 colon = tested on: KM12 colon
NCI/ADR-RES ovarian = tested on: NCI/ADR-RES ovarian
TK-10 renal = tested on: TK-10 renal
HOP-62 NSCLC = tested on: HOP-62 NSCLC
SNB-19 CNS = tested on: SNB-19 CNS
RXF 393 renal = tested on: RXF 393 renal
K-562 leukemia = tested on: K-562 leukemia
IGROV1 ovarian = tested on: IGROV1 ovarian
MDA-MB-231 breast = tested on: MDA-MB-231 breast
COLO 205 colon = tested on: COLO 205 colon
LOX IMVI melanoma = tested on: LOX IMVI melanoma
RPMI-8226 leukemia = tested on: RPMI-8226 leukemia
SW-620 colon = tested on: SW-620 colon
A498 renal = tested on: A498 renal
HOP-92 NSCLC = tested on: HOP-92 NSCLC
CAKI-1 renal = tested on: CAKI-1 renal
NCI-H23 lung = tested on: NCI-H23 lung
ACHN renal = tested on: ACHN renal
OVCAR-5 ovarian = tested on: OVCAR-5 ovarian
OVCAR-8 ovarian = tested on: OVCAR-8 ovarian
NCI-H460 NSCLC = tested on: NCI-H460 NSCLC
SNB-75 CNS = tested on: SNB-75 CNS
SK-MEL-5 melanoma = tested on: SK-MEL-5 melanoma
SN12C renal = tested on: SN12C renal
SK-OV-3 ovarian = tested on: SK-OV-3 ovarian
EKVX NSCLC = tested on: EKVX NSCLC
HCT-116 colon = tested on: HCT-116 colon
OVCAR-4 ovarian = tested on: OVCAR-4 ovarian
PC-3 prostate = tested on: PC-3 prostate
UO-31 renal = tested on: UO-31 renal
MCF7 breast = tested on: MCF7 breast
MDA-MB-435 melanoma = tested on: MDA-MB-435 melanoma
BT-549 breast = tested on: BT-549 breast
MOLT-4 leukemia = tested on: MOLT-4 leukemia
SF-268 CNS = tested on: SF-268 CNS
U251 glioblastoma = tested on: U251 glioblastoma
NCI-H226 lung = tested on: NCI-H226 lung
UACC-257 melanoma = tested on: UACC-257 melanoma

CCNC(=O)Nc1ccc(-c2nc3c(c(N4CCOC[C@@H]4C)n2)CCN(C2COC2)C3)cc1
GI50 (SF-295 CNS): 305 nM
TGI (SF-295 CNS): 2540 nM
GI50 (HL-60(TB) leukemia): 5400 nM
TGI (HL-60(TB) leukemia): > 100000 nM
GI50 (HCC-2998 colon): 440 nM
TGI (HCC-2998 colon): > 100000 nM
GI50 (DU-145 prostate): 640 nM
TGI (DU-145 prostate): > 100000 nM
GI50 (UACC-62 melanoma): 366 nM
TGI (UACC-62 melanoma): 3810 nM
GI50 (NCI-H522 lung): 159 nM
TGI (NCI-H522 lung): 8130 nM
GI50 (HS 578T breast): 116 nM
TGI (HS 578T breast): 596 nM
GI50 (MALME-3M melanoma): 167 nM
TGI (MALME-3M melanoma): 3020 nM
GI50 (NCI-H322M lung): 527 nM
TGI (NCI-H322M lung): > 100000 nM
GI50 ([…]-0 renal): 1190 nM
TGI (786-0 renal): > 100000 nM
GI50 (SF-539 CNS): 656 nM
TGI (SF-539 CNS): > 100000 nM
GI50 (A549 NSCLC): 480 nM
TGI (A549 NSCLC): > 100000 nM
GI50 (T-47D breast): 26.3 nM
TGI (T-47D breast): 437 nM
GI50 (OVCAR-3 ovarian): 445 nM
TGI (OVCAR-3 ovarian): > 100000 nM
GI50 (MDA-MB-468 breast): 173 nM
TGI (MDA-MB-468 breast): 2380 nM
GI50 (M14 melanoma): 416 nM
TGI (M14 melanoma): > 100000 nM
GI50 (SK-MEL-2 melanoma): 1890 nM
TGI (SK-MEL-2 melanoma): 7590 nM
GI50 (HT29 colon): 4780 nM
TGI (HT29 colon): > 100000 nM
GI50 (CCRF-CEM leukemia): 325 nM
TGI (CCRF-CEM leukemia): 19800 nM
GI50 (HCT-15 colon): 669 nM
TGI (HCT-15 colon): > 100000 nM
GI50 (SK-MEL-28 melanoma): 443 nM
TGI (SK-MEL-28 melanoma): 28000 nM
GI50 (KM12 colon): 479 nM
TGI (KM12 colon): > 100000 nM
GI50 (NCI/ADR-RES ovarian): 11400 nM
TGI (NCI/ADR-RES ovarian): > 100000 nM
GI50 (TK-10 renal): 390 nM
TGI (TK-10 renal): 5650 nM
GI50 (HOP-62 NSCLC): 494 nM
TGI (HOP-62 NSCLC): 11000 nM
GI50 (SNB-19 CNS): 2820 nM
TGI (SNB-19 CNS): > 100000 nM
GI50 (RXF 393 renal): 212 nM
TGI (RXF 393 renal): 2130 nM
GI50 (K-562 leukemia): 752 nM
TGI (K-562 leukemia): > 100000 nM
GI50 (IGROV1 ovarian): 147 nM
TGI (IGROV1 ovarian): 885 nM
GI50 (MDA-MB-231 breast): 476 nM
TGI (MDA-MB-231 breast): > 100000 nM
GI50 (COLO 205 colon): 347 nM
TGI (COLO 205 colon): > 100000 nM
GI50 (LOX IMVI melanoma): 658 nM
TGI (LOX IMVI melanoma): 13800 nM
GI50 (RPMI-8226 leukemia): 38.7 nM
TGI (RPMI-8226 leukemia): 276 nM
GI50 (SW-620 colon): 2280 nM
TGI (SW-620 colon): > 100000 nM
GI50 (A498 renal): 93.8 nM
TGI (A498 renal): 1900 nM
GI50 (HOP-92 NSCLC): 605 nM
TGI (HOP-92 NSCLC): 8680 nM
GI50 (CAKI-1 renal): 323 nM
TGI (CAKI-1 renal): 4100 nM
GI50 (NCI-H23 lung): 1910 nM
TGI (NCI-H23 lung): > 100000 nM
GI50 (ACHN renal): 485 nM
TGI (ACHN renal): > 100000 nM
GI50 (OVCAR-5 ovarian): 1040 nM
TGI (OVCAR-5 ovarian): > 100000 nM
GI50 (OVCAR-8 ovarian): 966 nM
TGI (OVCAR-8 ovarian): > 100000 nM
GI50 (NCI-H460 NSCLC): 108 nM
TGI (NCI-H460 NSCLC): > 100000 nM
GI50 (SNB-75 CNS): 46.2 nM
TGI (SNB-75 CNS): 980 nM
GI50 (SK-MEL-5 melanoma): 221 nM
TGI (SK-MEL-5 melanoma): 2260 nM
GI50 (SN12C renal): 310 nM
TGI (SN12C renal): > 100000 nM
GI50 (SK-OV-3 ovarian): 189 nM
TGI (SK-OV-3 ovarian): 5370 nM
GI50 (EKVX NSCLC): 381 nM
TGI (EKVX NSCLC): 9360 nM
GI50 (HCT-116 colon): 3280 nM
TGI (HCT-116 colon): > 100000 nM
GI50 (OVCAR-4 ovarian): 279 nM
TGI (OVCAR-4 ovarian): 3450 nM
GI50 (PC-3 prostate): 218 nM
TGI (PC-3 prostate): > 100000 nM
GI50 (UO-31 renal): 654 nM
TGI (UO-31 renal): > 100000 nM
GI50 (MCF7 breast): 131 nM
TGI (MCF7 breast): 68600 nM
GI50 (MDA-MB-435 melanoma): 716 nM
TGI (MDA-MB-435 melanoma): 7410 nM
GI50 (BT-549 breast): 220 nM
TGI (BT-549 breast): 2560 nM
GI50 (MOLT-4 leukemia): 207 nM
TGI (MOLT-4 leukemia): 11100 nM
GI50 (SF-268 CNS): 1220 nM
TGI (SF-268 CNS): > 100000 nM
GI50 (U251 glioblastoma): 1350 nM
TGI (U251 glioblastoma): > 100000 nM
GI50 (NCI-H226 lung): 207 nM
TGI (NCI-H226 lung): 3330 nM
GI50 (UACC-257 melanoma): 1450 nM
TGI (UACC-257 melanoma): 14600 nM
